The values below come from PubChem BioAssay (NCI).

Molecules are shown by their SMILES. “And” between values parts separate entries of the source, which are not always exact repeats. Equal entries are not always repeated.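 96-well plates; 48 h exposure; 5 concentrations. Endpoints by linear interpolation between flanking doses. Not reached: highest tested concentration assigned. The concentration for 50% growth inhibition is given as GI50. TGI marks complete inhibition of growth.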 A value given as a limit tells only on which side of the number the result lay.

Among the test systems are U251 CNS; HCT-116 colon; K-562 leukemia; UACC-62 melanoma; OVCAR-4 ovarian; T-47D breast; CCRF-CEM leukemia; NCI-H23 lung; SN12C renal; UACC-257 melanoma.
Holding throughout (assay): NCI tumour cell line growth inhibition, 48 h

Consider `Cc1ccc2cccc(OC(=O)Nc3cccc(C(F)(F)F)c3)c2n1`, for which the GI50 in the test on U251 CNS is 3.07 µM; with HCT-116 colon it was 3.27 µM; with K-562 leukemia, 3.63 µM; with UACC-62 melanoma, 3.05 µM; in the test with OVCAR-4 ovarian it was 2.09 µM; with T-47D breast, 3.05 µM. The GI50 with CCRF-CEM leukemia is 2.86 µM; in the test on NCI-H23 lung, 2.78 µM; with SN12C renal it was 2.66 µM; in the test on UACC-257 melanoma it was 3.4 µM. Besides, the TGI in the test with U251 CNS stood at 12.2 µM; with HCT-116 colon, 11.1 µM; in the test with K-562 leukemia, 17.8 µM; in the test with UACC-62 melanoma, 11.2 µM; in the test with OVCAR-4 ovarian, 10.3 µM; with T-47D breast, 13.4 µM. Moreover, the TGI in the test on CCRF-CEM leukemia was 19.2 µM; in the test with NCI-H23 lung it was 10 µM; in the test with SN12C renal, 8.18 µM; in the test with UACC-257 melanoma, 12.9 µM.

Turning to `COc1cc(-c2nc3sc(C)cn3c2/C=C2\C(=O)Nc3ccccc32)c(Br)c(OC)c1OC`, the GI50 in the test on U251 CNS was 22.9 µM; in the test on HCT-116 colon, 26 µM; with K-562 leukemia, 48.4 µM; in the test on UACC-62 melanoma, 34 µM; in the test on OVCAR-4 ovarian, 44.1 µM; in the test on T-47D breast it was 47.7 µM. In addition, the GI50 is 43.2 µM in the test with CCRF-CEM leukemia, 30.9 µM with NCI-H23 lung, 45.4 µM in the test on SN12C renal and 27.4 µM in the test with UACC-257 melanoma. For the same molecule, the TGI is 54.8 µM with U251 CNS; more than 100 µM in the test with HCT-116 colon; more than 100 µM in the test on K-562 leukemia; more than 100 µM with UACC-62 melanoma; more than 100 µM in the test on OVCAR-4 ovarian; more than 100 µM in the test on T-47D breast. In addition, the TGI is more than 100 µM with CCRF-CEM leukemia, more than 100 µM with NCI-H23 lung, more than 100 µM with SN12C renal and 81.5 µM in the test on UACC-257 melanoma.

As to `COc1cc(/C=C2\CCC/C(=C\c3ccc(O)c(OC)c3)C2=O)ccc1O`, the GI50 with U251 CNS is 1.62 µM; in the test on HCT-116 colon, 1.45 µM; with K-562 leukemia, 2.71 µM; in the test with UACC-62 melanoma, 1.6 µM; in the test on OVCAR-4 ovarian it was 2.54 µM; in the test on T-47D breast it was 1.91 µM. The GI50 with CCRF-CEM leukemia was 0.366 µM; with NCI-H23 lung, 1.84 µM; with SN12C renal, 1.87 µM; in the test with UACC-257 melanoma, 1.71 µM. Moreover, the TGI with U251 CNS was 8.89 µM and 4.21 µM; with HCT-116 colon it was 5 µM and 2.75 µM; in the test with K-562 leukemia it was > 61 µM and 25.7 µM; in the test on UACC-62 melanoma, 5.32 µM and 4.06 µM; with OVCAR-4 ovarian it was 43.5 µM and 10.6 µM; in the test with T-47D breast it was 12.2 µM and 7.41 µM. In addition, the TGI in the test with CCRF-CEM leukemia is 12.2 µM and > 100 µM; in the test with NCI-H23 lung it was 24.8 µM and 4.63 µM; in the test on SN12C renal, 6.33 µM and 5.01 µM; with UACC-257 melanoma it was 27 µM and 6.74 µM.

As to `Cn1c(=O)nc2n(-c3ccc(Cl)cc3)c3cc(Cl)ccc3nc-2c1=O`, the TGI was determined as 33 µM in the test with U251 CNS; 10 µM in the test with HCT-116 colon; 5.41 µM in the test on K-562 leukemia; 3.57 µM in the test on UACC-62 melanoma; 2.53 µM in the test with OVCAR-4 ovarian; 2.03 µM in the test on T-47D breast. Besides, the TGI was found to be 33.2 µM in the test on CCRF-CEM leukemia, 6.06 µM with NCI-H23 lung, 13.9 µM in the test on SN12C renal and 3.51 µM in the test on UACC-257 melanoma.

With `Cn1c2c(c3ccccc31)CCN(CCCCN1CCN(c3ccccc3)CC1)C2=O`, the TGI in the test with U251 CNS was more than 84.2 µM; in the test with HCT-116 colon, more than 100 µM; in the test on K-562 leukemia it was more than 56 µM; in the test on UACC-62 melanoma, more than 68.7 µM; in the test with OVCAR-4 ovarian, more than 100 µM; in the test on T-47D breast it was more than 100 µM. In addition, the TGI in the test on CCRF-CEM leukemia is more than 79.9 µM; in the test on NCI-H23 lung it was more than 76.8 µM; with SN12C renal, more than 91.4 µM; in the test with UACC-257 melanoma, 26.6 µM.

`CC1(C)N=C(N)N=C(N)N1c1ccc(Cl)cc1`: the GI50 in the test on U251 CNS is 1.19 µM; in the test with HCT-116 colon it was 0.627 µM; with K-562 leukemia it was 1.3 µM; in the test with UACC-62 melanoma, 4.09 µM; with OVCAR-4 ovarian it was 14.9 µM; with T-47D breast, more than 100 µM. Also, the GI50 in the test with CCRF-CEM leukemia is more than 100 µM; in the test on NCI-H23 lung it was 2.51 µM; with SN12C renal, 7.25 µM; in the test with UACC-257 melanoma, 75 µM. The TGI with U251 CNS, in the test on HCT-116 colon, with K-562 leukemia, in the test with UACC-62 melanoma, in the test with OVCAR-4 ovarian and with T-47D breast was more than 100 µM throughout. In addition, the TGI in the test on CCRF-CEM leukemia, in the test with NCI-H23 lung, with SN12C renal and in the test on UACC-257 melanoma was more than 100 µM each time.

On to `CC1=C(C)C(=O)O[C@@H]([C@](C)(O)[C@]2(O)CC[C@@]3(O)[C@@H]4C[C@H](O)[C@]5(O)[C@@H](O)C=CC(=O)[C@]5(C)[C@H]4CC[C@]23C)C1`, for which the TGI in the test with U251 CNS, with HCT-116 colon, in the test with K-562 leukemia, in the test with UACC-62 melanoma, in the test with OVCAR-4 ovarian and in the test on T-47D breast was more than 100 µM throughout. Further, the TGI in the test on CCRF-CEM leukemia was 89.5 µM; with NCI-H23 lung, more than 100 µM; in the test on SN12C renal, more than 100 µM; in the test with UACC-257 melanoma, more than 100 µM.

For `COC1=C(C)C(=O)c2c(c(CCCl)c3n2CCC3OC(C)=O)C1=O` (stereo not given), the GI50 with U251 CNS is 0.273 µM; in the test with HCT-116 colon, 0.791 µM; in the test with K-562 leukemia, 1.65 µM; in the test on UACC-62 melanoma, 0.208 µM; in the test on OVCAR-4 ovarian, 7.18 µM; in the test with T-47D breast it was 8.22 µM. Also, the GI50 is 3.33 µM in the test with CCRF-CEM leukemia, 0.0586 µM with NCI-H23 lung, 0.391 µM in the test on SN12C renal and 0.227 µM with UACC-257 melanoma. The TGI with U251 CNS was 13.4 µM; in the test with HCT-116 colon it was more than 22.8 µM; in the test on K-562 leukemia it was more than 33.1 µM; in the test on UACC-62 melanoma it was 0.578 µM; in the test on OVCAR-4 ovarian, 38.6 µM; in the test with T-47D breast it was more than 94.6 µM. Further, the TGI in the test on CCRF-CEM leukemia was more than 95.8 µM; with NCI-H23 lung, 0.992 µM; with SN12C renal it was 15.4 µM; in the test on UACC-257 melanoma it was 0.733 µM.

For `CC(C)(C)CC(C)(C)c1ccc(O)c(Cc2ccc(Cl)cc2Cl)c1`, the GI50 is 1.56 µM in the test on U251 CNS; 1.66 µM in the test with HCT-116 colon; 2.09 µM with K-562 leukemia; 1.7 µM with UACC-62 melanoma; 1.59 µM in the test with OVCAR-4 ovarian; 1.35 µM in the test on T-47D breast. Further, the GI50 in the test with CCRF-CEM leukemia was 1.53 µM; with NCI-H23 lung, 1.53 µM; in the test on SN12C renal, 1.47 µM; with UACC-257 melanoma, 1.51 µM. Further, the TGI turned out to be 2.9 µM in the test with U251 CNS; 3.16 µM in the test with HCT-116 colon; 3.83 µM in the test with K-562 leukemia; 3.07 µM in the test on UACC-62 melanoma; 2.93 µM with OVCAR-4 ovarian; 2.69 µM in the test on T-47D breast. Also, the TGI came out at 3.19 µM with CCRF-CEM leukemia, 2.89 µM in the test with NCI-H23 lung, 2.79 µM in the test on SN12C renal and 2.86 µM in the test on UACC-257 melanoma.
